According to paper PMC4632126, “High specific selectivity and Membrane-Active Mechanism of the synthetic centrosymmetric α-helical peptides with Gly-Gly pairs” (Scientific Reports, 2015):
Converted amounts (≈) assume the structure as drawn. Where two headings read alike, the source gives them in different places. Where no end group is shown, it is not given here.

Tests used:
[1] = tested on: E. coli ATCC 25922; test: Flow cytometry, membrane integrity by PI staining; format: cell-based, Escherichia coli; settings: peptide at 1 × MBC, PI 10 μg mL^−1, 30 min at 4 °C
Procedure: The membrane damage was determined by flow cytometry. Briefly, E. coli ATCC 25922 was grown to mid-log phase in MHB at 37 °C, harvested by centrifugation at 1,000 × g for 10 min, washed thrice with PBS and diluted to 10^5 CFU mL^−1 in the same buffer. The peptides at the concentrations of 1 × MBCs were incubated with the bacterial suspension at a fixed PI concentration of 10 μg mL^−1 for 30 min at 4 °C, and followed by the removal of the unbound dye through washing with an excess of PBS. A Fluorescence Activated Cell Sorter (FACS) flow cytometer (Becton–Dickinson, USA) was used to obtain the data with a laser excitation wavelength of 488 nm.

[2] = tested on: S. typhimurium ATCC14028; format: cell-based, Salmonella typhimurium
Procedure: (§1) Minimal bactericidal concentrations (MBCs) were measured using the method which has been adopted from National Committee for Clinical Laboratory Standards (NCCLS), with modifications. In short, 50 μL peptide solutions were pipetted into microtiter plates at various concentrations ranging from 1 to 128 μM. Freshly grown bacteria were added to the each well in a density of 0.5–1 × 10^6 CFUmL^−1. Microtiter plated was incubated at 37 °C for 5 h. Fifty microliters of each incubation mixture was further serially diluted (up to 10^−3 of the initial bacterial concentration), transferred on agar plates and incubated overnight. On the following day, the number of colonies was evaluated and the initial CFU/well retrospectively calculated. The minimum bactericidal concentrations (μM) were determined as the lowest concentration of the peptides that prevented more than 99.9% bacteria growth.

[3] = tested on: E. coli UB1005; format: cell-based, Escherichia coli
Procedure: as §1

[4] = tested on: E. coli ATCC 25922; format: cell-based, Escherichia coli
Procedure: as §1

[5] = tested on: all of the 6 strains tested; test: Geometric mean of MBCs and therapeutic index, all strains; format: cell-based; settings: >128 counted as 256 μM; for TI (therapeutic index), all strains: MHC/GM for all 6 strains
Procedure: as §1, with “In” for “Minimal bactericidal concentrations (MBCs) were measured using the method which has been adopted from National Committee for Clinical Laboratory Standards (NCCLS), with modifications. In”
(§2) The therapeutic index (TI) is calculated by the ration of the minimum hemolytic concentration (MHC) to the geometric mean of the MBC (GM) to evaluate cell selectivity of peptides.

[6] = tested on: 3 gram-positive strains tested; settings: >128 counted as 256 μM; for TI (therapeutic index), gram-positive: MHC/GM for 3 gram-positive strains
Procedure: as §1, with “In” for “Minimal bactericidal concentrations (MBCs) were measured using the method which has been adopted from National Committee for Clinical Laboratory Standards (NCCLS), with modifications. In”
as §2

[7] = tested on: S. aureus ATCC29213; format: cell-based, Staphylococcus aureus
Procedure: as §1

[8] = tested on: 3 gram-negative strains tested; test: Geometric mean of MBCs and therapeutic index, gram-negative strains; format: cell-based; settings: >128 counted as 256 μM; for TI (therapeutic index), gram-negative: MHC/GM for 3 gram-negative strains
Procedure: as §1, with “In” for “Minimal bactericidal concentrations (MBCs) were measured using the method which has been adopted from National Committee for Clinical Laboratory Standards (NCCLS), with modifications. In”
as §2

[9] = tested on: human red blood cells (hRBCs); settings: red cells of human, 1 h
Procedure: (§3) The hemolytic activity of each peptide was evaluated using a modified method, as described previously[21][22]. […] Then, the collected hRBCs were washed three times with PBS (pH 7.2), centrifuged at 1000 × g for 5 min, and resuspended in PBS (final concentration, approximately 1%). Next, 50 μL of the hRBC suspension was placed into a 96-well cell culture plate with 50 μL of test peptide solution in PBS at different concentrations, and the mixture was incubated at 37 °C for 1 h. After incubation, the plate was centrifuged at 1000 × g for 5 min, the supernatant was transferred to a new 96-well cell culture plate, and the release of hemoglobin was measured by monitoring optical density (OD) at 576 nm. Untreated hRBCs suspension was used as a negative control, and the hRBCs treated with 0.1% Triton X-100 were employed as positive controls. Each test was reproduced at least 3 times using 6 replicates. Percent hemolysis was calculated using the following equation:

[10] = tested on: S. epidermidis ATCC12228; format: cell-based, Staphylococcus epidermidis; settings: ATCC12228, 5 h
Procedure: In short, 50 μL peptide solutions were pipetted into microtiter plates at various concentrations ranging from 1 to 128 μM. Freshly grown bacteria were added to the each well in a density of 0.5–1 × 10^6 CFUmL^−1. Microtiter plated was incubated at 37 °C for 5 h. Fifty microliters of each incubation mixture was further serially diluted (up to 10^−3 of the initial bacterial concentration), transferred on agar plates and incubated overnight. On the following day, the number of colonies was evaluated and the initial CFU/well retrospectively calculated. The minimum bactericidal concentrations (μM) were determined as the lowest concentration of the peptides that prevented more than 99.9% bacteria growth. Each test was reproduced at least 3 times using 6 replicates.

[11] = tested on: E. coli ATCC 25922; format: cell-based, Escherichia coli; remark: listed apart in the source
Procedure: as §1, with “In short, 50 μL peptide solutions were pipetted into microtiter plates at various concentrations ranging from 1 to 128 μM.” left out, “growth. […] The salt sensitivity of the peptides was measured using a modified method, as described previously. […] The subsequent steps were consistent with the MBCs determination method.” for “growth.”

[12] = tested on: E. coli ATCC 25922; format: cell-based, Escherichia coli; settings: ATCC 25922, 24 h
Procedure: The checkerboard titration method is commonly used to evaluate the synergy of different antibacterial combinations. First, 2-fold serial dilutions of the antibiotics and antimicrobial peptides were prepared. Subsequently, 50 μL each of different concentrations of antibiotics and of antimicrobial peptides was mixed and added into 100 μL of bacterial solution (containing approximately 0.5–1 × 10^6 CFU mL^−1) in each well of a 96-well plate. The plates were then incubated at 37 °C for 24 h. The subsequent steps were consistent with the MBCs determination method. The fractional inhibitory concentration (FIC) index (FICI) was calculated as follows: An FICI < 0.5 is considered to indicate synergy; 0.5 < FICI < 1.0 is considered additive; 1.0 < FICI < 4.0 is considered indifferent; and an FICI > 4.0 is considered antagonism.

[13] = tested on: human red blood cells (hRBCs); test: Hemolytic activity; settings: concentration causing 5% hemolysis of human red blood cells; about 1% hRBC in PBS, 37 °C, 1 h, OD 576 nm
Procedure: as §3

[14] = tested on: Methicillin-resistant S. aureus ATCC 43300; settings: S. aureus 43300 (methicillin-resistant); lowest concentration preventing more than 99.9% growth; 37 °C, 5 h; representative of three trials
Procedure: as §1, with “In” for “Minimal bactericidal concentrations (MBCs) were measured using the method which has been adopted from National Committee for Clinical Laboratory Standards (NCCLS), with modifications. In”

[15] = tested on: S. aureus ATCC 29213; format: cell-based, Staphylococcus aureus; settings: ATCC 29213, 5 h
Procedure: as §1, with “In short, 50 μL peptide solutions were pipetted into microtiter plates at various concentrations ranging from 1 to 128 μM.” left out, “growth. […] The salt sensitivity of the peptides was measured using a modified method, as described previously. […] The subsequent steps were consistent with the MBCs determination method.” for “growth.”

[16] = molecular target: the molecule itself; test: FRET or BRET; FAM-labeled GG3 (donor) with TAMRA-labeled GG3 (acceptor) and unlabeled GG3, in POPG or POPC/POPG (3:1) vesicles; total peptide and FAM-peptide concentrations kept constant, mole fraction of TAMRA-peptide varied; 10 mM Tris, 150 mM NaCl, 0.1 mM EDTA, pH 7.4; excitation 492 nm; membrane-bound state

CC[C@H](C)[C@H](NC(=O)CN)C(=O)NCC(=O)N[C@@H](C)C(=O)N[C@H](C(=O)N[C@@H](CC(C)C)C(=O)N[C@@H](CCCCN)C(=O)N[C@H](C(=O)N[C@@H](CC(C)C)C(=O)N[C@H](C(=O)N[C@H](C(=O)NCC(=O)N[C@@H](CC(C)C)C(=O)N1CCC[C@H]1C(=O)N[C@@H](C)C(=O)N[C@@H](CC(C)C)C(=O)N[C@H](C(=O)N[C@@H](CO)C(=O)N[C@@H](Cc1c[nH]c2ccccc12)C(=O)N[C@H](C(=O)N[C@@H](CCCCN)C(=O)N[C@@H](CCCNC(=N)N)C(=O)N[C@@H](CCCCN)C(=O)N[C@@H](CCCNC(=N)N)C(=O)N[C@@H](CCC(N)=O)C(=O)N[C@@H](CCC(N)=O)C(N)=O)[C@@H](C)CC)[C@@H](C)CC)[C@@H](C)O)[C@@H](C)O)C(C)C)C(C)C [Melittin, reference compound]
percentage of PI-positive cells [1]: 99.0% | Minimum bactericidal concentration ([2]; S. typhimurium 14028, lowest concentration preventing more than 99.9% growth, 37 °C, 5 h, representative of three trials): 2 µM (≈ 5.69 µg/mL) | Minimum bactericidal concentration ([3]; E. coli 1005, lowest concentration preventing more than 99.9% growth, 37 °C, 5 h, representative of three trials): 2 µM (≈ 5.69 µg/mL) | Minimum bactericidal concentration ([4]; E. coli 25922, lowest concentration preventing more than 99.9% growth, 37 °C, 5 h, representative of three trials): 2 µM (≈ 5.69 µg/mL) | GM (geometric mean of MBCs), Gram (+, −) ([5]; all 6 strains): 2 µM | GM (geometric mean of MBCs), Gram (+) ([6]; 3 gram-positive strains): 2 µM | Minimum bactericidal concentration ([7]; S. aureus 29213, lowest concentration preventing more than 99.9% growth, 37 °C, 5 h, representative of three trials): 8 µM (≈ 22.8 µg/mL) | GM (geometric mean of MBCs), Gram (−) ([8]; 3 gram-negative strains): 2 µM

AKLWLKA-NH2 [AA1]
Minimum bactericidal concentration ([2]; ATCC14028, 5 h): >128 µM | Minimum bactericidal concentration ([3]; UB1005, 5 h): >128 µM | Minimum bactericidal concentration ([4]; ATCC 25922, 5 h): >128 µM | MHC (minimum hemolytic concentration) [9]: >128 µM | Minimum bactericidal concentration ([7]; ATCC 29213, 5 h): >128 µM | Minimum bactericidal concentration [10]: >128 µM

GKLWGLKGKLWGLKGKLWGLK-NH2 [GG3s1]
Minimum bactericidal concentration ([2]; ATCC14028, 5 h): 16 µM | Minimum bactericidal concentration ([3]; UB1005, 5 h): 4 µM | Minimum bactericidal concentration ([4]; ATCC 25922, 5 h): 4 µM | TI (therapeutic index), all strains [5]: 8.98 | TI (therapeutic index), gram-positive [6]: 2 | MHC (minimum hemolytic concentration) [9]: >128 µM | Minimum bactericidal concentration ([7]; ATCC 29213, 5 h): 128 µM | Minimum bactericidal concentration [10]: 128 µM | TI (therapeutic index), gram-negative [8]: 40.31

GKLWLKG-NH2 [GG1]
Minimum bactericidal concentration ([2]; ATCC14028, 5 h): >128 µM | Minimum bactericidal concentration ([3]; UB1005, 5 h): >128 µM | Minimum bactericidal concentration ([4]; ATCC 25922, 5 h): >128 µM | MHC (minimum hemolytic concentration) [9]: >128 µM | MBC with FeCl3 ([11]; E. coli ATCC 25922, 4 μM FeCl3): >128 µM | MBC with NH4Cl ([11]; E. coli ATCC 25922, 6 μM NH4Cl): >128 µM | MBC with ZnCl2 ([11]; E. coli ATCC 25922, 8 μM ZnCl2): >128 µM | MBC with MgCl2 ([11]; E. coli ATCC 25922, 1 mM MgCl2): >128 µM | MBC with CaCl2 ([11]; E. coli ATCC 25922, 2 mM CaCl2): >128 µM | MBC with KCl ([11]; E. coli ATCC 25922, 4.5 mM KCl): >128 µM | MBC with NaCl ([11]; E. coli ATCC 25922, 150 mM NaCl): >128 µM | MBC, control ([11]; E. coli ATCC 25922, without physiological salts): >128 µM | Minimum bactericidal concentration ([7]; ATCC 29213, 5 h): >128 µM | Minimum bactericidal concentration [10]: >128 µM

GKLWLKGGKLWLKGGKLWLKG-NH2 [GG3]
Minimum bactericidal concentration ([2]; ATCC14028, 5 h): 4 µM | Minimum bactericidal concentration ([3]; UB1005, 5 h): 2 µM | Minimum bactericidal concentration ([4]; ATCC 25922, 5 h): 2 µM | FIC index in combination with Ceftazidime [12]: 0.75 | FIC index in combination with Chloramphenicol [12]: 1 | FIC index in combination with Ciprofloxacin [12]: 1 | FIC index in combination with Streptomycin [12]: 0.5 | TI (therapeutic index), all strains [5]: 32 | TI (therapeutic index), gram-positive [6]: 10.08 | MHC (minimum hemolytic concentration) [13]: >128 µM | MBC with CaCl2 ([11]; ATCC 25922, 5 h): 2 µM | MBC with FeCl3 ([11]; ATCC 25922, 5 h): 1 µM | MBC with KCl ([11]; ATCC 25922, 5 h): 2 µM | MBC with MgCl2 ([11]; ATCC 25922, 5 h): 2 µM | MBC with NH4Cl ([11]; ATCC 25922, 5 h): 2 µM | MBC with NaCl ([11]; ATCC 25922, 5 h): 2 µM | MBC with ZnCl2 ([11]; ATCC 25922, 5 h): 2 µM | MBC, control ([11]; ATCC 25922, 5 h): 2 µM | Minimum bactericidal concentration [14]: 32 µM | Minimum bactericidal concentration ([7]; ATCC 29213, 5 h): 16 µM | MBC with CaCl2 [15]: 16 µM | MBC with FeCl3 [15]: 16 µM | MBC with KCl [15]: 8 µM | MBC with MgCl2 [15]: 16 µM | MBC with NH4Cl [15]: 16 µM | MBC with NaCl [15]: 16 µM | MBC with ZnCl2 [15]: 16 µM | MBC, control [15]: 16 µM | Minimum bactericidal concentration [10]: 32 µM | TI (therapeutic index), gram-negative [8]: 101.59

B1: Gly-rich centrosymmetric peptide GG3 (peptide)
peptide: GKLWLKGGKLWLKGGKLWLKG-NH2
modifications: not fully specified
notes: designed peptide from the template (y+hhh+y)n, three repeats of GKLWLKG; In the FRET experiment, FAM-labeled, TAMRA-labeled and unlabeled GG3 were mixed on lipid vesicles; also called FAM-labeled GG3; TAMRA-labeled GG3; source: synthetic peptide (GL Biochem Corporation, Shanghai)
binding result [16]: binds
